The source of these data is article PMC12724174, “Biodegradation of the endocrine-disrupting compound bisphenol F by Sphingobium yanoikuyae DN12” (Applied and Environmental Microbiology, 2025).

One test concerns T1, BpfAB (BpfA1B1).
T1 construct: gene bpfA1; bpfA1B1 co-expressed from pET-29a in E. coli BL21(DE3), N-terminal His6 on BpfA (MHHHHHHPLSVAE by primer), Ni-NTA; total 663 aa; BpfB mostly apo (little heme); C-terminus of BpfB VEPKP by primer; with Cytochrome c BpfB
Put plainly: HPLC of residual substrate; Michaelis-Menten nonlinear fit. The format is biochemical, Sphingobium yanoikuyae. The settings on record: apparent; optimal pH 8.0 and 55°C; 0.1 mM FAD, 0.2 mM phenazine methosulfate in standard assay; BpfB mostly apo.

The subject of a further test is T2, BpfC (BpfC1).
T2 construct: full length, 402 aa (1,209 bp), C-terminal His6 (pET-29a), E. coli BL21(DE3), Ni-NTA; N-terminus MSGNDR and C-terminus FAESVQ-LEHHHHHH by primers
The description is as above. The format is biochemical, Sphingobium yanoikuyae. Particulars: apparent; optimal pH 8.5 and 40°C; 0.02 mM FAD, 0.4 mM nicotinamide adenine dinucleotide phosphate in standard assay; aerobic.

Molecules are shown by their SMILES.

For `Oc1ccc(Cc2ccc(O)cc2)cc1` [BPF, Bisphenol F], the Km in the test on BpfAB (BpfA1B1) stood at 19.3 ± 6.66 µM. Take `O=C(c1ccc(O)cc1)c1ccc(O)cc1` [DHBP, 4,4'-dihydroxybenzophenone]: the Km in the test with BpfC (BpfC1) turned out to be 21.3 ± 2.88 µM.
